# Columns and labels:
# [1] = system: L. major ΔLCB2 promastigotes; type: cell-based, Leishmania major; details: EC50 WT versus ΔLCB2 L. major promastigotes
# LmjIPCS = molecular target: T1, LmjIPCS (Leishmania major, UniProt E9AFX2); test: HPTLC based LmjIPCS assay; type: biochemical; details: microsomes treated with 5 mM compound; NBD-C6-ceramide and PI
# T1 construct: made in house
# Excerpt: CF was originally selected from a screen for inhibitors of the sphingolipid synthase, (L. majIPCS) and to verify that this new analogue retained this profile we applied the same assays as used before. […] To support inhibition of the IPCS, the HPTLC biochemical assay described by Mina et al.[16] was employed. In this, using a microsomal preparation of the L. majIPCS, a fluorescent substrate NBD-C6-ceramide was combined with PI and the two drugs. Following the reaction, the product, NBD-C6-IPC, and residual starting material were separated via HPTLC and analysed by fluorescence spectroscopy.
# °C and 5% CO2. Aliquots of resazurin solution (10 μL) were then added and the cells were incubated at 37 °C and 5% CO2 for 4 h. Cell-viability measurement was carried out using a fluorescence plate reader. […]
# days. Infected ear thicknesses were measured once or twice a week with a caliper gauge, and the lesion sizes were expressed as the difference between the thickness of infected and non-infected ear. On day 41 animals were sacrificed and the fluorescence measured (485 - 528 nm) and parasite load quantified using a limiting dilution assay (LDA).
# Data on lesion progression were analysed for statistical significance by using the Dunnett test as part of the one-way ANOVA (GraphPad Prism 8 software). […]
# Product quantification was carried out using a fluorescence plate reader […]
# [2] = system: L. amazonensis promastigotes; test: anti-promastigote assay, L. amazonensis (resazurin); type: cell-based; details: Leishmania amazonensis; promastigote parasites (Table 1); read-out: L.amaz EC50
# Experimental: 4.2.3.1. Anti-promastigote assays […]
# Protocol 1: L. amazonensis promastigotes in Medium 199 (100 μL at 5 × 105 mL−1) were incubated in 96-well plates with compounds in triplicate (amphotericin B was used as a positive control, and untreated parasites with DMSO as a negative control) at 26 °C for 72 h. Resazurin Solution (10 μL) was then added and the plate incubated at 26 °C for 4 h prior to measurement using a fluorescence plate reader (555 - 585 nm). EC50 values were calculated using sigmoidal regression analysis (GraphPad Prism).
# Protocol 2: Same procedure as above with the modification of a 48 h incubation time as opposed to 72 h and Leishmania amazonensis (MHOM/Br/75/JOSEFA) in Schneider’s insect medium in the place of Leishmania amazonensis (MHOM/Br/75/JOSEFA) in Medium 199. […]
# well-1 in a 24-well plate with round cover slips and incubated for 24 h at 37 °C and 5% CO2. […]
# T1 sequence (E9AFX2 whole entry): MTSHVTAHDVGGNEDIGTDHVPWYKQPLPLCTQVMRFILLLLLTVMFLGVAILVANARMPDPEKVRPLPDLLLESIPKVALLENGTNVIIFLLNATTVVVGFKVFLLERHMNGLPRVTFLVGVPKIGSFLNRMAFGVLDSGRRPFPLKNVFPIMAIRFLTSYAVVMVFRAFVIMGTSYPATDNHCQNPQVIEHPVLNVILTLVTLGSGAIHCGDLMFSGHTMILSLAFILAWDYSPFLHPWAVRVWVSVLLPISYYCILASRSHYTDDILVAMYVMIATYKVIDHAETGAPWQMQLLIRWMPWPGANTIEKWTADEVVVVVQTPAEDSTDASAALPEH
smiles,measurement,setting,value
C[C@H]1CCCN1CCCO[C@H](c1ccccc1)c1ccc(Cl)cc1 [38l],times more active against WT than mutant ΔLCB2 promastigotes,[1],approximately 3 times
same,NBD-C6-IPC product formation (HPTLC),LmjIPCS,No product was observed
same,EC50,[2],41 nM

# Reference: article PMC11862611 (RSC Medicinal Chemistry, 2025)
